According to patent publication US12291504B2 (University of Pittsburgh—Of the Commonwealth System of …, priority 2018, dated 2025):
Read-outs that look alike come from different tables or passages of the source.

Tests used:
SULT1A3 [1] = molecular target: T1, SULT1A3 (Homo sapiens, UniProt P0DMM9); experiment: SULT1A3 inhibition studies, 1-HP initial-rate fluorescence assay; type: biochemical; parameters: Wild-type and mutant SULT1A3 coding regions were inserted into a pGEX-6P expression vector; N-His/GST/MBP triple-tag (N, cleaved yes); made in house; host or cells: E. coli BL21(DE3); inhibition: dose or concentration left out as unconfirmed; conditions: for inhibition: read-out: SULT1A3 Enzyme Inhibition at Saturation/%
Description: (§1) The initial rates of SULT catalyzed 1-HP sulfonation are plotted as a function of inhibitor concentration, and are normalized relative to [inhibitor]=0. Enzyme activity was monitored by the sulfonation dependent change in 1-HP fluorescence (λex=325 nm, λem=370 nm). Less than 5% of the concentration-limiting substrate converted at the reaction endpoint was consumed during initial-rate measurements. Each point is the average of three independent determinations. Conditions: SULT (20 nM, active sites), PAPS (0.50 mM, 17×Km), 1-HP (5.0 μM, 61×Km), KPO4 (50 mM), pH 7.5, 25±2° C.
(§2) Initial-Rate Studies. Initial-rate parameters for the labeled or mutant SULT1A3 constructs were determined using a previously described 1-HP assay (25). Briefly, reactions were initiated by addition of PAPS (0.50 mM, 17×Km) to a solution containing enzyme (20 nM, active sites), 1-HP (2.0 μM, ˜24×Km), and KPO4 (50 mM), pH 7.5, 25±2° C. Reactions were monitored via fluorescence change associated with the conversion of 1-HP to 1-HP-S (λex=325 nm, λem=370 nm). Keq for the 1-HP sulfonation reaction is −250. Given the reaction conditions outlined above, ≥99% of 1-HP is converted to 1-HP-S, and ˜0.4% of PAPS is converted to PAP at equilibrium. […] Reaction progress curves were analyzed to obtain initial-rate parameters as described previously (26,27).
(§3) Inhibition studies. Inhibition parameters were determined under conditions identical to those described above (see, Initial-Rate Studies) except that [1-HP] was increased to 5.0 μM (˜61×Km) and inhibitor concentration was varied between 0.20-20×Ki. Ki was obtained using a least-squares fit to the following partial inhibition equation (25,28): v=kcat·(Ki+(1/kcat inh)·[I])/(Ki+[I]), where kcat inh is enzyme turnover at saturating substrates and allosteric inhibitor.
as §2, with “(47).” for “(25).”, “˜250.” for “−250.”, “(48,49).” for “(26,27).”
as §3, with “(47,50): V/Vax=(Ki+α·[I])/(Ki+[I]),” for “(25,28): v=kcat·(Ki+(1/kcat inh)·[I])/(Ki+[I]),”, “α” for “kcat inh”, “is percentage of” for “is”, “turnover remaining” for “turnover”

[2] = test system: other major SULT isoforms found in liver and brain; experiment: Inhibition of SULT isoforms by CMP8 (FIG. 1); type: biochemical; conditions: at concentrations as high as 2 mM
Description: as §1
Such inhibitors alleviate inhibition when used competitively against total inhibitors that bind at the same site. […] Given these favorable characteristics, it was reasoned that the CMP8-binding site offered a new target that could be used to control 1A3 activity. Consequently, the solution structure of the CMP8-binding site was determined using spin-label-triangulation NMR. As used herein, the “CMP8-binding site” refers to the SULT1A3 allosteric site defined herein, which is different from the catechin- and NSAID-binding sites.

SULT1A3 [3] = molecular target: T1, SULT1A3; experiment: Dopamine sulfonation by SULT1A3-expressing HME cells; type: cell-based; conditions: dopamine 100 μM, 24 hours, best-fit titration curve, read-out: EC50, inhibition of dopamine sulfonation
Description: Cells were incubated with 100 μM dopamine and incubation media was sampled for dopamine and dopamine sulfate at the indicated time intervals. The dopamine and dopamine sulfate levels in the SULT1A3 (+) strain are shown as red and blue dots, respectively. Only dopamine (green dots) was detected using the SULT1A3 (−) strain.
HME cells were incubated with dopamine (100 μM) and Compound 12 (at the indicated concentrations) for 24 hours at which time the dopamine (red dots) and dopamine sulfate (blue dots) levels were determined. […] The chromatography was performed using a PFP-HPLC column. […] Further, the data in Table A reveal that Compound 12 is highly specific for the SULT1A3 isoform.
HME cells expressing SULT1A3 were incubated for 24 hours with dopamine (100 μM) and Compound 23 (at the indicated concentrations) at which time the dopamine (red dots) and dopamine sulfate (blue dots) concentrations were determined using the methods associated with FIG. 10B.

[4] = ND = inhibition was not detected at 30 μM compound, parentheses one standard error, read-out: SULT1A3 Ki/μM

T1 sequence (P0DMM9 whole entry): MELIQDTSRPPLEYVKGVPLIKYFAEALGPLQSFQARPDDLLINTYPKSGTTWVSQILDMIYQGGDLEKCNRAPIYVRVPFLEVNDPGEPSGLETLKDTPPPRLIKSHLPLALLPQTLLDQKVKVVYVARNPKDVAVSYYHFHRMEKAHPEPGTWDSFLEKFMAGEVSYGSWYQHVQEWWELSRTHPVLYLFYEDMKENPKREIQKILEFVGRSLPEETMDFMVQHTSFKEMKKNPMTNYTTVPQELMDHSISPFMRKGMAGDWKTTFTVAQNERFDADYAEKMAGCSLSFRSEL

| Structure (SMILES) | Ki (SULT1A3 [1]; FIG. 1, read-out: Ki of CMP8 for SULT1A3) [µM] | Ki (SULT1A3 [1]; [4]) [µM] | Ki (SULT1A3 [1]; WT enzyme, parentheses one standard deviation, read-out: Ki CMP8) [µM] | alleviation of inhibition by epigallochatechin gallate or mefenamic acid (SULT1A3 [1]; competition against near-total inhibitors of the catechin and NSAID sites) | inhibition (SULT1A3 [1]; parentheses one standard error) [%] | SULT1A3 turnover at saturation relative to absence of inhibitor (SULT1A3 [1]; partial inhibitor, at saturation) [%] | kcat (+CMP8)/kcat (−CMP8) (SULT1A3 [1]; saturating CMP8) | inhibition of other major SULT isoforms [2] | affinity for SULT1A3 (in words) (SULT1A3 [1]) | Ki (SULT1A3 [1]; standard error in neighbouring cell, read-out: Human (1A3) Ki) [µM] | inhibition at saturation (SULT1A3 [1]; text b218) [%] | EC50 (SULT1A3 [3]) [nM] |
| --- | --- | --- | --- | --- | --- | --- | --- | --- | --- | --- | --- | --- |
| CC(C)Cc1ccc2cc(CO)ccc2n1 [Compound 8, (2-Isobutylquinolin-6-yl)methanol] | 0.034 | 0.034 | 0.034 | did not alleviate inhibition | 54 | 46 | 0.46±0.08 | does not detectably inhibit |  |  |  |  |
| CC(C)Cc1ccc2cc(CCC(N)=O)ccc2n1 [Compound 12] |  | 0.069 |  |  | 83 |  |  |  | low micromolar affinity | 0.05 | 83 | 250 ± 87 |
